Consider 54 compounds from the RepoRT retention time repository (doi:10.1021/acs.analchem.1c00972).

The nature of data set [1]: RP, Waters ACQUITY UPLC BEH C18, 100 × 1 mm, 1.7 µm, 50 °C, 0.3 mL/min, estimated dead time 0.17 min; A: water + 0.1% formic acid + 20 mM ammonium formate; B: methanol + 0.1% formic acid + 20 mM ammonium formate; gradient (min/%B) 0/0 15/100 21/100 22/0 30/0. To be noted: stereoisomer not certain.
The nature of data set [2]: RP, Waters ACQUITY UPLC BEH C18, 100 × 1 mm, 1.7 µm, 50 °C, 0.3 mL/min, estimated dead time 0.17 min; A: water + 10 mM ammonium bicarbonate; B: 10% water + 90% methanol + 10 mM ammonium bicarbonate; gradient (min/%B) 0/0 15/100 21/100 22/0 30/0. The note with it: stereoisomer not certain.

Consider `CC(NC(C)(C)C)C(=O)c1cccc(Cl)c1` (stereo not drawn) [Bupropion], for which the results for the LC retention time in data set [1] and in data set [2] were 10.5 min and 15.6 min, respectively.

As for `CC(=O)OC1CC2(C)C3(CO3)C1OC1C=C(C)C(=O)C(O)C12CO` (stereo not drawn) [3-Acetyl-Deoxynivalenol], the LC retention time in data set [1] was 9.62 min; in data set [2], 9.74 min.

Take `CC(=O)OC1C(C)OC(n2cc(F)c(N)nc2=O)C1OC(C)=O` (stereo not drawn) [2',3'-Di-O-acetyl-5'-deoxy-5-fluorocytidine]: the LC retention time was 9.43 min in data set [1] and 9.61 min in data set [2].

As to `CCCCCC(C)OC(=O)COc1ccc(Cl)c2cccnc12` (stereo not drawn) [Cloquintocet-mexyl], the LC retention time is 16.9 min in data set [1] and 17.3 min in data set [2].

`O=S(=O)(c1ccc(Cl)cc1)c1ccc(Cl)cc1` [Bis(4-chlorophenyl)sulfone]: the results for the LC retention time in data set [1] and in data set [2] were 14.9 min and 12 min, respectively.

Take `COP(=S)(OC)Oc1ccc(S(C)=O)c(C)c1` (stereo not drawn) [Fenthion-sulfoxide]: the LC retention time was 12.1 min in data set [1] and 12.3 min in data set [2].

Turning to `CCCc1nc(C)c2c(=O)[nH]c(-c3cc(S(=O)(=O)N4CCN(CC)CC4)ccc3OCC)nn12` [Vardenafil], the LC retention time was 12.2 min in data set [1] and 14.8 min in data set [2].

Take `CC(CCC(=O)O)C1CCC2C3C(=O)CC4CC(O)CCC4(C)C3CCC12C` (stereo not drawn) [7-Oxolithocholic acid]: the figures for the LC retention time in data set [1] and in data set [2] were 19.2 min and 14.3 min, respectively.

`CC(=O)Nc1ccc(N)cc1` [4'-Aminoacetanilide]: the LC retention time in data set [1] is 8.1 min; in data set [2], 4.75 min.

In the case of `CCc1cccc(C)c1N1C(=O)COCC1C` (stereo not drawn) [Metolachlor-morpholinone], the results for the LC retention time in data set [1] and in data set [2] were 12.6 min and 12.9 min, respectively.

Turning to `COc1c(C(C)(C)C)cc([N+](=O)[O-])c(C)c1[N+](=O)[O-]` [Musk ambrette], the LC retention time in data set [1] is 8.38 min; in data set [2], 6.58 min.

Consider `CCOP(=O)(NC(C)C)Oc1ccc(S(C)(=O)=O)c(C)c1` (stereo not drawn) [Fenamiphos-sulfone], for which the LC retention time was 12.2 min in data set [1] and 12.4 min in data set [2].

On to `CC1=CC2OC3C(O)C(O)C(C)(C34CO4)C2(CO)C(O)C1=O` (stereo not drawn) [Nivalenol], for which the results for the LC retention time in data set [1] and in data set [2] were 5.87 min and 5.94 min, respectively.

As to `CCC(C)C1OC2(C=CC1C)CC1CC(CC=C(C)C(OC3CC(OC)C(OC4CC(OC)C(NC)C(C)O4)C(C)O3)C(C)C=CC=C3COC4C(O)C(C)=CC(C(=O)O1)C34O)O2` (stereo not drawn) [Emamectin B1a], the figures for the LC retention time in data set [1] and in data set [2] were 17.1 min and 18.6 min, respectively.

As for `CC(COc1ccccc1Cc1ccccc1)N1CCCCC1` (stereo not drawn) [Benproperine], the LC retention time in data set [1] was 13.1 min; in data set [2], 18.2 min.

As for `[NH3+][C@@H](Cc1cc(I)c(Oc2cc(I)c(O)c(I)c2)c(I)c1)C(=O)[O-]` [L-thyroxine], the LC retention time is 14.1 min in data set [1] and 12.9 min in data set [2].

`CNC(=O)N(C)c1nc2ccccc2s1` [Methabenzthiazuron]: the LC retention time in data set [1] was 12.7 min; in data set [2], 13 min.

For the compound `COc1ccc2c3c1OC1C(O)C=CC4C(C2)N(C)CCC341` (stereo not drawn) [Codein], the LC retention time in data set [1] was 6.77 min; in data set [2] it was 12.1 min.

For `CCNc1nc(NCC)[nH]c(=O)n1` [Simazine 2-Hydroxy], the LC retention time in data set [1] was 7.39 min; in data set [2], 9.04 min.

Take `COc1ncc(F)c2nc(S(=O)(=O)Nc3c(F)cccc3F)nn12` [Florasulam]: the values for the LC retention time in data set [1] and in data set [2] were 10.5 min and 9 min, respectively.

Take `CC12CC3CC(C)(C1)CC(N)(C3)C2` [Memantine]: the values for the LC retention time in data set [1] and in data set [2] were 11.9 min and 13.7 min, respectively.

As to `CC1CCC2(NC1)OC1CC3C4CC=C5CC(O)CCC5(C)C4CCC3(C)C1C2C` (stereo not drawn) [Solasodin], the LC retention time is 14.3 min in data set [1] and 18 min in data set [2].

Regarding `O=S(=O)(O)ON=C(Cc1c[nH]c2ccccc12)SC1OC(CO)C(O)C(O)C1O` (stereo not drawn) [Glucobrassicin], the LC retention time in data set [1] is 6.39 min; in data set [2], 6.03 min.

Take `COC(C)C(O)(C(=O)OCC1=CCN2CCC(O)C12)C(C)(C)O` (stereo not drawn) [Europine]: the LC retention time in data set [1] was 6.72 min; in data set [2] it was 9.86 min.

As for `CNC(=O)Oc1cccc2c1OC(C)(C)C2` [Carbofuran], the LC retention time was 11.8 min in data set [1] and 12 min in data set [2].

For `O=C(Oc1ccccc1)c1ccccc1C(=O)Oc1ccccc1` [Diphenylphthalate], the LC retention time is 15.7 min in data set [1] and 16 min in data set [2].

For the compound `CCC1COC(Cn2cncn2)(c2ccc(Cl)cc2Cl)O1` (stereo not drawn) [Etaconazole], the figures for the LC retention time in data set [1] and in data set [2] were 15 min and 15.4 min, respectively.

In the case of `COC(=O)C(c1ccccc1Cl)N1CCc2sccc2C1` (stereo not drawn) [Clopidogrel], the LC retention time in data set [1] is 15.4 min; in data set [2], 16.5 min.

With `OCC(O)CN1CCN(c2ccccc2)CC1` (stereo not drawn) [Dropropizine], the LC retention time was 6.44 min in data set [1] and 10.7 min in data set [2].

Consider `CCc1cccc(CC)c1N(COC)C(=O)C(=O)O` [Alachlor tert-oxanilic acid (OA)], for which the LC retention time is 15.5 min in data set [1] and 15.9 min in data set [2].

Turning to `COc1ccc(CCC(=O)c2c(O)cc(OC3OC(CO)C(O)C(O)C3OC3OC(C)C(O)C(O)C3O)cc2O)cc1O` (stereo not drawn) [Neohesperidin DC], the LC retention time in data set [1] was 11.5 min; in data set [2], 10.4 min.

For `CON=C(C(=O)OC)c1ccccc1COc1ccccc1C` [Kresoxim-methyl], the LC retention time in data set [1] is 15.4 min; in data set [2], 15.8 min.

With `CC(C)=CCOc1c2occc2cc2ccc(=O)oc12` [Imperatorin], the results for the LC retention time in data set [1] and in data set [2] were 14.3 min and 14.6 min, respectively.

For the compound `O=C1Cc2cc(CCN3CCN(c4nsc5ccccc45)CC3)c(Cl)cc2N1` [Ziprasidone], the LC retention time is 11.3 min in data set [1] and 16.1 min in data set [2].

As for `CC(O)C(=O)Nc1c(I)c(C(=O)NC(CO)CO)c(I)c(C(=O)NC(CO)CO)c1I` (stereo not drawn) [Iopamidol], the LC retention time in data set [1] was 3.66 min; in data set [2] it was 3.64 min.

For the compound `Clc1ccc(COC(Cn2ccnc2)c2ccc(Cl)cc2Cl)c(Cl)c1` (stereo not drawn) [Miconazole], the LC retention time was 15.7 min in data set [1] and 18 min in data set [2].

In the case of `CCCOc1nn(C(=O)NS(=O)(=O)c2ccccc2C(=O)OC)c(=O)n1C` [Propoxycarbazone], the LC retention time in data set [1] was 11.8 min; in data set [2], 9.89 min.

Consider `c1ccc2sc(N3CCOCC3)nc2c1` [2(4-morpholinyl)benzothiazole], for which the results for the LC retention time in data set [1] and in data set [2] were 12.7 min and 13.2 min, respectively.

Turning to `CC(=O)OC1(C(C)=O)CCC2C3C=C(C)C4=CC(=O)CCC4(C)C3CCC21C` (stereo not drawn) [Megestrol-17-acetate], the results for the LC retention time in data set [1] and in data set [2] were 15.3 min and 15.6 min, respectively.

For `COc1ccc2c(c1)OC(O)C(=O)N2O` (stereo not drawn) [DIMBOA], the LC retention time in data set [1] is 8.5 min; in data set [2], 4.91 min.

As for `COC(C)C(O)(C(=O)OCC1=CC[N+]2([O-])CCC(O)C12)C(C)(C)O` (stereo not drawn) [Europine N-oxide], the results for the LC retention time in data set [1] and in data set [2] were 6.99 min and 7.37 min, respectively.

Regarding `Cc1onc(-c2ccccc2)c1C(=O)NC1C(=O)N2C1SC(C)(C)C2C(=O)O` (stereo not drawn) [Oxacillin], the LC retention time is 12.7 min in data set [1] and 11.6 min in data set [2].

Consider `O=C(Nc1ccc([N+](=O)[O-])cc1Cl)c1cc(Cl)ccc1O` [Niclosamide], for which the results for the LC retention time in data set [1] and in data set [2] were 16.7 min and 13.6 min, respectively.

`CC(=O)OCC(COC(C)=O)OC(C)=O` [Triacetin]: the LC retention time was 9.42 min in data set [1] and 9.54 min in data set [2].

With `C=C1C(=O)OC2C=C(C)CCC=C(C)CCC12` (single isomer, unassigned; (+)) [(+)-Costunolide], the values for the LC retention time in data set [1] and in data set [2] were 15 min and 15.3 min, respectively.

For `Nc1ccc(Nc2ccccc2)cc1` [4-Aminodiphenylamine], the values for the LC retention time in data set [1] and in data set [2] were 8.71 min and 11.5 min, respectively.

`CN=CNc1ccc(C)cc1C` [N-(2,4-Dimethylphenyl)-N-methyl-formamidine]: the LC retention time in data set [1] is 7.83 min; in data set [2], 12.1 min.

Take `CCOC(=O)C(CCc1ccccc1)NC(C)C(=O)N1CCCC1C(=O)O` (stereo not drawn) [Enalapril]: the LC retention time in data set [1] was 11.7 min; in data set [2], 12.2 min.

For the compound `CC(C)CC(C)Nc1ccc(Nc2ccccc2)cc1` (stereo not drawn) [N-(1,3-Dimethylbutyl)-N'-phenyl-1,4-phenylenediamine], the LC retention time in data set [1] is 13.3 min; in data set [2], 17.2 min.

As for `CN(C)c1ccncc1` [4-(Dimethylamino)pyridine], the figures for the LC retention time in data set [1] and in data set [2] were 4.07 min and 7.04 min, respectively.

For `O=C(O)Cc1ccccc1Nc1c(Cl)cc(O)cc1Cl` [4-Hydroxy-Diclofenac], the LC retention time in data set [1] was 13.7 min; in data set [2], 10.7 min.

For `COC(=O)C1C(O)CCC2CN3CCc4c([nH]c5ccccc45)C3CC21` (stereo not drawn) [Yohimbine], the LC retention time in data set [1] is 9.26 min; in data set [2], 14.1 min.

As to `O=C1CCCCCCCCCCC1` [Cyclododecanone], the results for the LC retention time in data set [1] and in data set [2] were 16.1 min and 16.5 min, respectively.

`CCN(CC)C(=O)SCc1ccccc1Cl` [Orbencarb]: the LC retention time in data set [1] is 15.9 min; in data set [2] it was 16.3 min.
